Assay [1] relates to Ovariectomized (OVX) rats. The assay can be described thus: Bone density in Ovariectomized (OVX) osteoporosis model in rats. Format: in vivo, Wistar rats. The method, then:
(§1) Observe the effect of RDE in this invention on both Tretinoin-induced and Ovariectomized (OVX) osteoporosis model in rats.
(§2) RDE was produced according to Example 1 (Per gram extract is equivalent to 66.67 g crude drugs). RDE was dissolved in distilled water to a concentration of 0.47 mg/ml before administration. And administration was conducted via gastric tube. Tretinoin is manufactured by Chongqing Huabang Pharmaceuticals, Ltd. and was suspended to the concentration of 1.5% with distilled water. Control drug α-D3 was manufactured by TEVA PHARMACEUTICALS, Israel, which is solved in distilled water to the concentration of 0.03 μg/ml before using and administrated orally via gastric tube.
(§3) Tretinoin-induced osteoporosis rats: sixty female W istar rats, 16-week-old, mean weight 234.85±15.32 g. Ovariectomized rats: sixty female Wistar rats, 12-week-old, mean weight 183.46±12.45 g. All the animals are obtained from the Experimental Animal Center of Chinese Military Medical Academy.
(§4) Bone Biomechanics Rheometer was manufactured by Stevens Company, Great Britain (model QTS-25). X ray Bone-density-meter was manufactured by Norland Company, USA (model XR-26). The others are all obtained from market.
4. Dose Selections and Groups: • (1) Tretinoin-induced group: Sixty rats are randomly allocated to six groups (10 rats per group). Blank group: control animals received PSS/d (physiological saline solution) alone. […]
The dose administered to each animal is calculated from the individual body weight recorded at the end of each week. […]
7. […] Bone biomechanics measurements: three point bending tests of left thighbone of each animal are performed; load-deformation curve is recorded to measure the biomechanics index. […] Bone structural mechanics parameters: breaking load, elastic load, maximum radius, elastic radius, maximum energy absorption; bone material mechanics parameters: firstly calculated the Femoral Section Inertial Moment, then computed the maximum strain, elastic strain, maximum stress, elastic stress and elastic modulus according to the formulae. […]

The subject of assay [2] is Tretinoin-induced osteoporosis in rats. The assay can be described thus: Bone biomechanics (three point bending of left thighbone) in Tretinoin-induced osteoporosis rats. The format is in vivo, Wistar rats. The method, then: as §1, §2, §3, §4
4. Dose Selections and Groups: • (1) Tretinoin-induced group: Sixty rats are randomly allocated to six groups (10 rats per group). Blank group: control animals received PSS/d (physiological saline solution) alone. Model group: Tretinoin is given orally 70 mg/kg/d; α-D3 group: both tretinoin and α-D3 are given orally 70 mg/kg/d and 0.002 μg/kg/d respectively; RDE low-dose group: both tretinoin and RDE are given orally 70 mg/kg/d and 54 mg/kg/d respectively; RDE medium-dose group: tretinoin 70 mg/kg/d and RDE 108 mg/kg/d; RDE high-dose group: tretinoin 70 mg/kg/d and RDE 216 mg/kg/d. • (2) Ovariectomized (OVX) rats group: Sixty rats are randomly allocated to six groups (10 rats per group). Blank group is the normal rats. All the other groups are removed amphi-ovaries. Model group received PSS only; α-D3 group: α-D3 is administrated orally 0.002 μg/kg/d; And RDE is administrated orally in the dose of 54, 108, 216 mg/kg/day to OVX rats respectively, corresponding to RDE groups of low-dose, medium-dose and high-dose.
The dose administered to each animal is calculated from the individual body weight recorded at the end of each week.
Tretinoin-induced osteoporosis groups: Blank group received PSS during the course of experiment. The other groups commenced treatment on the same day, designated study Day 1, and once-daily tretinoin orally given for 14 days, after which they stopped administrating tretinoin. Both blank and model groups are given PSS in Day 15, and α-D3 group is given α-D3, RDE groups are given the corresponding dose of RDE orally for 14 days. The final dose is given in the Day 28 before sacrificed. Investigation of Bone Density and Bone-biomechanics are performed in the Day 29.
7. Measurements • 7.1. Bone density measurements are performed on No.2–4 lumbar spines and right thighbone of each animal. • 7.2. Bone biomechanics measurements: three point bending tests of left thighbone of each animal are performed; load-deformation curve is recorded to measure the biomechanics index. Experimental parameters: span 20 mm, loading velocity 10 mm/min. Bone structural mechanics parameters: breaking load, elastic load, maximum radius, elastic radius, maximum energy absorption; bone material mechanics parameters: firstly calculated the Femoral Section Inertial Moment, then computed the maximum strain, elastic strain, maximum stress, elastic stress and elastic modulus according to the formulae. [Results]

Where [3] appears, read: OVX rats, α-D3 0.002 μg/kg/d oral 12 weeks.
Where [4] appears, read: α-D3 0.002 μg/kg/d oral 14 days after tretinoin 70 mg/kg/d 14 days.

Regarding `C=C1/C(=C\C=C2/CCC[C@]3(C)[C@@H]([C@H](C)CCCC(C)C)CC[C@@H]23)C[C@@H](O)C[C@@H]1O` [α-D3], the “femoral bone density compared with model group” value in assay [1] (OVX rats (Table 10)) is given as “increased obviously”. Besides, in assay [1] (setting [3]), the “Bone density Lumber spine” value is listed as 0.13 ± 0.009 g/cm^2 and the Bone density thighbone came to 0.13 ± 0.009 g/cm^2. Besides, in assay [2] (Tretinoin-induced osteoporosis rats (Table 11)), the “all the bone structural mechanics indicators compared with model group” value was “increased significantly”. Moreover, in assay [2] (setting [4]), the Elastic load is given as 100.40 ± 7.00 N, the “Elastic strain (material)” value is 0.03 ± 0.01, the “Elastic strain (structural)” value is 1.01 ± 0.14 mm and the Elastic stress was determined as 177.6 ± 51.3 N/mm^2. In assay [2] (setting [4]), the Maximum energy observation worked out at 635.73 ± 114.46 N-mm, the Maximum load is 103.20 ± 3.40 N, the “Maximum strain (material)” value turned out to be 0.03 ± 0.009 and the “Maximum strain (structural)” value came to 0.98 ± 0.14 mm. In assay [2] (setting [4]), the Maximum stress came to 167.2 ± 44.5 N/mm^2 and the Rigidity coefficient amounted to 30561 ± 9194 N/mm^2.

For the origin of these results see patent publication US7122214B2, “Drynaria extractions for treating osteoporosis and their extraction process” (priority 2000, dated 2006).
